According to patent publication US8999925B2 (priority 2013, dated 2015):

Columns and labels:
Tamiami virus (TAMV) = assay type: cell-based
[1] = system: pseudotyped VSV expressing LASV GPC (VSVΔLASV); assay type: cell-based
[2] = system: vesicular stomatitis virus (VSV); assay type: cell-based
[3] = system: herpes simplex virus-1 (HSV-1, McIntyre strain); assay type: cell-based
measles virus (MV) = assay type: cell-based
R18-labeled PICV = assay type: biochemical
[4] = system: POPC LUVs or purified PICV
PICV = assay type: cell-based

Compound | plaque reduction (Tamiami virus (TAMV)) | plaque reduction [1] | inhibition of plaque formation [2] | inhibition of plaque formation [3] | inhibition of plaque formation (measles virus (MV)) | dequenching of PICV pre-incubated at pH 5.0 prior to labeling (R18-labeled PICV; pH 5) | dequenching of R18-labeled virus (R18-labeled PICV; pH 7.4) | presence of pre-fusion glycoprotein spikes (cryo-EM) (Purified PICV) | size distribution of viral particles (cryo-EM) (Purified PICV) | DPH anisotropy [4] | TMA-DPH anisotropy [4] | effect on viral infectivity (PICV) | effect on viral infectivity (plaque number) (PICV) | peptide concentration giving complete inhibition of plaque formation (PICV (CoAn 3739)) | IC50 (PICV (CoAn 3739); 1 h)
CC[C@H](C)[C@H](NC(=O)[C@H](CC(C)C)NC(=O)CNC(=O)[C@H](CC(N)=O)NC(=O)[C@@H](NC(=O)[C@@H](NC(=O)[C@H](CCCCN)NC(=O)[C@H](CCCCN)NC(=O)[C@H](Cc1ccccc1)NC(=O)[C@H](CC(C)C)NC(=O)[C@H](CC(N)=O)NC(=O)[C@@H](N)CC(C)C)[C@@H](C)O)[C@@H](C)CC)C(=O)N[C@@H](CO)C(=O)N[C@@H](CC(=O)O)C(=O)N[C@@H](CO)C(=O)N[C@@H](CC(C)C)C(=O)N[C@H](C(=O)N[C@H](C(=O)N[C@@H](CCCNC(=N)N)C(=O)O)[C@@H](C)CC)C(C)C [Peptide 1] | 45.0±5.0% | 63.8±13.0% | not significantly inhibited | not significantly inhibited | not significantly inhibited | did not induce significant dequenching | extensive dequenching | Disappearance of pre-fusion glycoprotein spikes was also observed in a significant number of particles | greater shift toward larger particles | Concentration-dependent increases in probe anisotropy values were observed to a greater degree with Peptide 1 than with Peptide 8 | increased substantially | no significant antiviral activity or increase in viral infectivity was observed | no increase in plaque number was observed | approximately 20 μM | 7.05 ± 2.19 µM
PGGYALEQWAIIWAGIKAF [Peptide 8] | – | – | – | – | – | – | – | – | – | purely incidental alterations in acyl chain packing | – | – | – | – | –
